Converted amounts (≈) assume the structure as drawn. Read-outs that look alike come from different tables or passages of the source. Where a SMILES comes first, the peptide text is derived from it.
Experiments:
[1] = system: DBI001; experiment: Biolog phenotype MicroArrays: components enhancing function (efficacy) against fungal or bacterial pathogens; type: cell-based; settings: enhancing function of human-derived Janthinobacterium lividum
[2] = system: Janthinobacterium lividum strains; experiment: Internal antibiotic resistance tests (BD BBL Sensi-Disc, zone of inhibition); type: cell-based; settings: all 5 strains; disc content per antibiotic (e.g. penicillin 10 IU); FIG. 5
Procedure: One Janthinobacterium lividum colony of 3-day old grown in 50% BHI agar was mixed well in 1 ml of 1×PBS buffer, diluted 10× and 100×, respectively. 200 μl of diluted Janthinobacterium lividum cells were evenly plated onto R2A/BHI agar plates in triplicate in 150 mm petri dishes. Antibiotic discs (BD BBL Sensi-Disc antimicrobial susceptibility test discs) were dispensed using a Disc dispenser (BD BBL Sensi-Disc Designer Dispenser System, 12-Place). Plates were incubated for 2-3 days at room temperature and imaged at the end of incubation.
The sensitivity of Janthinobacterium lividum to antibiotics is reflected by a clear zone of inhibition of Janthinobacterium lividum cells surrounding the antibiotic discs. The zone of inhibition was measured using ImageJ and was transformed into cm for analysis.

[3] = system: E. Coli ATCC25922; experiment: Antibiotic MIC tests; type: cell-based; settings: Escherichia coli
[4] = system: DB02378; experiment: Antibiotic MIC tests; type: cell-based, Janthinobacterium lividum; settings: strain DB02378
Procedure: (§1) The antibiotic resistance profile and MICs tests were performed using Janthinobacterium lividum grown from cultures purified and grown in vegitone LB broth.

[5] = system: DB00121; experiment: Antibiotic MIC tests; type: cell-based, Janthinobacterium lividum; settings: strain DB00121
Procedure: as §1

[6] = system: DB00118; experiment: Antibiotic MIC tests; type: cell-based, Janthinobacterium lividum; settings: strain DB00118
Procedure: as §1

[7] = system: DB02473; experiment: Antibiotic MIC tests; type: cell-based, Janthinobacterium lividum; settings: strain DB02473
Procedure: as §1

[8] = Janthinobacterium lividum, read-out: MIC

## O=C(CO)[C@@H](O[C@H]1O[C@H](CO)[C@@H](O)[C@H](O)[C@H]1O)[C@H](O)[C@H](O)CO [Turanose]
[1]
  Concentration Range of Efficacy: 1 to 5 mM

## CO[C@@H]1O[C@H](CO)[C@@H](O)[C@H](O)[C@H]1O [β-Methyl-D-Glucoside]
[1]
  Concentration Range of Efficacy: 2 to 20 mM

## CO[C@@H]1O[C@H](CO)[C@@H](O)[C@H](O)[C@H]1O [β-Methyl-D-Galactoside]
[1]
  Concentration Range of Efficacy: 1 to 5 mM

## C[C@H](N)C(=O)N[C@@H](CCC(=O)O)C(=O)O [Ala-Glu] (H-Ala-Glu-OH)
[1]
  Concentration Range of Efficacy: 0.1 to 1 mM

## OC[C@H]1O[C@H](OC[C@H]2O[C@H](OC[C@H]3O[C@H](O[C@]4(CO)O[C@H](CO)[C@@H](O)[C@@H]4O)[C@H](O)[C@@H](O)[C@@H]3O)[C@H](O)[C@@H](O)[C@H]2O)[C@H](O)[C@@H](O)[C@H]1O [Stachyose]
[1]
  Concentration Range of Efficacy: 1 to 5 mM

## penicillin
[2]
  sensitivity of Janthinobacterium lividum to antibiotic discs: sensitive

## OC[C@H]1O[C@@](CO)(O[C@H]2O[C@H](CO)[C@@H](O)[C@H](O)[C@H]2O)[C@@H](O[C@H]2O[C@H](CO)[C@@H](O)[C@H](O)[C@H]2O)[C@@H]1O [D-Melezitose]
[1]
  Concentration Range of Efficacy: 1 to 5 mM

## O=C[C@@H](O)[C@H](O[C@@H]1O[C@H](CO)[C@H](O)[C@H](O)[C@H]1O)[C@H](O)CO [3-0-β-D-Galactopyranosyl-D Arabinose]
[1]
  Concentration Range of Efficacy: 1 to 5 mM

## CC1(C)S[C@@H]2[C@H](NC(=O)[C@H](N)c3ccccc3)C(=O)N2[C@H]1C(=O)O [ampicillin]
[2]
  sensitivity of Janthinobacterium lividum to antibiotic discs: sensitive

## CO/N=C(\C(=O)N[C@@H]1C(=O)N2C(C(=O)O)=C(CSc3nc(=O)c(=O)[nH]n3C)CS[C@H]12)c1csc(N)n1 [Ceftriaxone]
[3]
  MIC: < 0.063 µg/mL
[4]; [8]
  MIC: 0.25 µg/mL (≈ 0.451 µM)
[5]; [8]
  MIC: 0.25 µg/mL (≈ 0.451 µM)
[6]; [8]
  MIC: 0.5 µg/mL (≈ 0.902 µM)
[7]; [8]
  MIC: 0.5 µg/mL (≈ 0.902 µM)

## O=P(O)(O)OCC(O)CO (racemic) [D,L-α-Glycerol Phosphate]
[1]
  Concentration Range of Efficacy: 2 to 20 mM

## CN(C)c1ccc(O)c2c1C[C@H]1C[C@H]3[C@H](N(C)C)C(O)=C(C(N)=O)C(=O)[C@@]3(O)C(O)=C1C2=O [Minocycline]
[3]
  MIC: 0.25 µg/mL (≈ 0.546 µM)
[5]; [8]
  MIC: < 0.063 µg/mL
[7]; [8]
  MIC: 0.25 µg/mL (≈ 0.546 µM)

## N[C@@H](C(=O)O)[C@@H](O)[C@H](O)[C@H](O)CO [D-Glucosaminic Acid]
[1]
  Concentration Range of Efficacy: 2 to 20 mM

## COC1OC(CO)C(O)C(O)C1O [α-Methyl-D-Galactoside]
[1]
  Concentration Range of Efficacy: 2 to 20 mM

## O=NO [Nitrite]
[1]
  Concentration Range of Efficacy: 0.1 to 1 mM

## CC(O)C(N)=O (racemic) [D,L-Lactamide]
[1]
  Concentration Range of Efficacy: 0.1 to 1 mM

## OC[C@H]1O[C@H](OCC2O[C@@H](O)[C@H](O)[C@@H](O)[C@@H]2O)[C@H](O)[C@@H](O)[C@H]1O (stereo partly drawn) [D-Melibiose]
[1]
  Concentration Range of Efficacy: 2 to 20 mM

## COC1OC(CO)C(O)C(O)C1O [α-Methyl-D-Mannoside]
[1]
  Concentration Range of Efficacy: 1 to 5 mM

## Pectin
[1]
  Concentration Range of Efficacy: 1 to 5 mM

## Inulin
[1]
  Concentration Range of Efficacy: 1 to 5 mM

## Neomycin
[4]
  MIC: 2 µg/mL
[5]
  MIC: 1 µg/mL
[6]
  MIC: 2 µg/mL
[7]
  MIC: 2 µg/mL

## O=P(O)(O)O[C@H]1O[C@H](CO)[C@@H](O)[C@H](O)[C@H]1O [D-Glucose-1-Phosphate]
[1]
  Concentration Range of Efficacy: 2 to 20 mM

## Chondroitin Sulfate C
[1]
  Concentration Range of Efficacy: 1 to 5 mM

## CO/N=C(\C(=O)N[C@@H]1C(=O)N2C(C(=O)[O-])=C(C[N+]3(C)CCCC3)CS[C@H]12)c1csc(N)n1 [Cefepime]
[3]
  MIC: < 0.063 µg/mL
[6]; [8]
  MIC: 0.25 µg/mL (≈ 0.52 µM)

## C[C@H]1COc2c(N3CCN(C)CC3)c(F)cc3c(=O)c(C(=O)O)cn1c23 [Levofloxacin]
[3]
  MIC: 0.063 µg/mL (≈ 0.174 µM)
[4]; [8]
  MIC: 0.25 µg/mL (≈ 0.692 µM)
[6]; [8]
  MIC: 0.25 µg/mL (≈ 0.692 µM)
[7]; [8]
  MIC: 0.25 µg/mL (≈ 0.692 µM)

## O=C1CCC(C(=O)O)O1 (stereo not drawn) [α-Hydroxy Glutaric Acid-g-Lactone]
[1]
  Concentration Range of Efficacy: 2 to 20 mM

## Maltotriose
[1]
  Concentration Range of Efficacy: 2 to 20 mM

## O=C(O)[C@H]1OC(O)[C@H](O)[C@@H](O)[C@@H]1O (stereo partly drawn) [D-Glucoronic Acid]
[1]
  Concentration Range of Efficacy: 2 to 20 mM
